Usually IC50 stands for the concentration at which inhibition is half-maximal. A high value points to a need for much substance.

SMILES strings stand for the structures.

One assay deals with T1, Dimer of Gag-Pol polyprotein [489-587] (Human immunodeficiency virus 1, UniProt P12497).
T1 construct: 489-587
In words: Protease Inhibition Assay.
Details: not given
The method, then:
For determination of IC50 values, HIV-1 protease was added to assay buffer containing inhibitor and the substrate (H-His-Lys-Ala-Arg-Val-Leu- (p-NO2) Phe-Glu-Ala-norleucine-Ser-NH2). The Leu- (p-NO2) Phe bond of the substrate was cleaved by the enzyme, and the substrate and products were separated by reversed-phase HPLC. Absorbance was measured at 220 nm, peak areas were determined, and percentage conversion to product was calculated.
As for `O=C1CC2(CCc3ccccc32)OC(=O)C1SCc1ccccc1` (stereo not given) [5'-(benzylsulfanyl)-4'-hydroxy-3',6',2,3-tetrahydrospiro[indene-1,2'-pyran]-6'-one], the concentration for half-maximal inhibition (IC50) is 11800 nM.
In turn, `O=C1CC(CCCCO)(c2ccccc2)OC(=O)C1SCc1ccccc1` (stereo not given) [3-(benzylsulfanyl)-4-hydroxy-6-(4-hydroxybutyl)-6-phenyl-5,6-dihydro-2H-pyran-2-one] came in with an IC50 of 1260 nM.
In turn, `O=C1CC2(CCCc3ccccc32)OC(=O)C1SCc1ccccc1` (stereo not given) [3,4-Dihydro-4-hydroxy-5-[(phenylmethyl)thio]spiro[naphthalene-1(2H),2-[2H]pyran]-6 (3 H)-one] had an IC50 of 2300 nM.
Still for that read-out and setting: as for `CC(C)c1ccccc1SC1C(=O)CC(c2ccccc2)(c2ccccc2)OC1=O` (stereo not given) [4-hydroxy-6,6-diphenyl-3-{[2-(propan-2-yl)phenyl]sulfanyl}-5,6-dihydro-2H-pyran-2-one], the figure is 23 nM; as for `Cc1ccc(C(C)(C)C)c(SC2C(=O)CC(CCc3ccccc3)(c3ccccc3)OC2=O)c1` (stereo not given) [4-Hydroxy-5,6-dihydropyrone deriv. 49], 10 nM; as for `CN(CC1(c2ccccc2)CC(=O)C(SCCc2ccccc2)C(=O)O1)c1ccccc1` (stereo not given) [5,6-Dihydro-4-hydroxy-6-[(methylphenylamino)methyl]-6-phenyl-3-[(2-phenylethyl)thio]-2H-pyran-2-one], 2280 nM.
The compound `Cc1ccc(C(C)C)c(SC2C(=O)CC(CCc3ccccc3)(c3ccccc3)OC2=O)c1` (stereo not given) [4-hydroxy-3-{[5-methyl-2-(propan-2-yl)phenyl]sulfanyl}-6-phenyl-6-(2-phenylethyl)-5,6-dihydro-2H-pyran-2-one] displayed an IC50 of 7 nM.
Consider `Cc1ccc(C(C)C)c(SC2C(=O)CC(c3ccccc3)(c3ccccc3)OC2=O)c1` (stereo not given) [4-hydroxy-3-{[5-methyl-2-(propan-2-yl)phenyl]sulfanyl}-6,6-diphenyl-5,6-dihydro-2H-pyran-2-one], for which the half-inhibitory concentration (IC50) amounted to 38 nM.
`CCC(C)c1ccccc1SC1C(=O)CC(CCc2ccccc2)(c2ccccc2)OC1=O` (stereo not given) [3-{[2-(butan-2-yl)phenyl]sulfanyl}-4-hydroxy-6-phenyl-6-(2-phenylethyl)-5,6-dihydro-2H-pyran-2-one] had an IC50 of 10 nM.
The compound `CC(C)(C)c1ccccc1SC1C(=O)CC(c2ccccc2)(c2ccccc2)OC1=O` (stereo not given) [3-[(2-tert-Butylphenyl)sulfanyl]-5,6-dihydro-4-hydroxy-6,6-diphenyl-2H-pyran-2-one] displayed a half-maximal inhibitory concentration (IC50) of 49 nM. This IC50 lies about 4.9-fold higher than the previous one.
In the case of `CC(C)(C)c1ccccc1SC1C(=O)CC(CCc2ccccc2)(c2ccccc2)OC1=O` (stereo not given) [3-[(2-tert-butylphenyl)sulfanyl]-4-hydroxy-6-phenyl-6-(2-phenylethyl)-5,6-dihydro-2H-pyran-2-one], the IC50 is 3 nM.
Same read-out and setting: as for `CCC(C)c1ccccc1SC1C(=O)CC(c2ccccc2)(c2ccccc2)OC1=O` (stereo not given) [3-[(2-sec-Butylphenyl)sulfanyl]-5,6-dihydro-4-hydroxy-6,6-diphenyl-2H-pyran-2-one], the figure is 17 nM; as for `CC(C)c1ccc(C(C)C)c(SC2C(=O)CC(CCc3ccccc3)(c3ccccc3)OC2=O)c1` (stereo not given) [5,6-Dihydro-4-hydroxy-6-phenyl-6-(2-phenylethyl)-3-[(2,5-diisopropylphenyl)sulfanyl]-2H-pyran-2-one], 14 nM; as for `O=C1CC2(CCCc3ccccc32)OC(=O)C1SCCc1ccccc1` (stereo not given) [3,4-Dihydro-4-hydroxy-5-[(2-phenylethyl)thio]-spiro[naphthalene-1(2H),2-[2H]pyran]-6 (3 H)-one], 1300 nM.
The same measure, in the same setting: as for `CC(C)c1ccc(C(C)(C)C)c(SC2C(=O)CC(CCc3ccccc3)(c3ccccc3)OC2=O)c1` (stereo not given) [3-[(2-tert-Butyl-5-isopropylphenyl)sulfanyl]-5,6-dihydro-4-hydroxy-6-phenyl-6-(2-phenylethyl)-2H-pyran-2-one], the figure is 47 nM; as for `O=C1CC(c2ccccc2)(c2ccccc2)OC(=O)C1Sc1ccccc1C1CCCC1` (stereo not given) [3-[(2-cyclopentylphenyl)sulfanyl]-4-hydroxy-6,6-diphenyl-5,6-dihydro-2H-pyran-2-one], 14 nM.

The same assay, now with this note: pH 4.7; 37 °C.
Turning to `CC(C)CC1(c2ccccc2)CC(=O)C(SCc2ccccc2)C(=O)O1` (stereo not given) [3-(benzylsulfanyl)-4-hydroxy-6-(2-methylpropyl)-6-phenyl-5,6-dihydro-2H-pyran-2-one], half-maximal inhibition (IC50) was put at 440 nM.
Still for that read-out and setting: the same measure for `O=C1CC(c2ccccc2)(c2ccccc2)OC(=O)C1Sc1ccccc1` (stereo not given) [5,6-Dihydro-4-hydroxy-6,6-diphenyl-3-(phenylthio)-2H-pyran-2-one]: 110 nM; for `O=C(O)CCCC1(c2ccccc2)CC(=O)C(SCCc2ccccc2)C(=O)O1` (stereo not given) [4-{4-hydroxy-6-oxo-2-phenyl-5-[(2-phenylethyl)sulfanyl]-3,6-dihydro-2H-pyran-2-yl}butanoic acid]: 270 nM.
Same read-out and setting: the same measure for `CC(C)CCCC1(c2ccccc2)CC(=O)C(SCCc2ccccc2)C(=O)O1` (stereo not given) [4-hydroxy-6-(4-methylpentyl)-6-phenyl-3-[(2-phenylethyl)sulfanyl]-5,6-dihydro-2H-pyran-2-one]: 155 nM; for `CCCCCC1(c2ccccc2)CC(=O)C(SCc2ccccc2)C(=O)O1` (stereo not given) [3-(benzylsulfanyl)-4-hydroxy-6-pentyl-6-phenyl-5,6-dihydro-2H-pyran-2-one]: 124 nM; for `O=C1CC(c2ccccc2)(c2ccccc2)OC(=O)C1SCCc1ccccc1` (stereo not given) [5,6-Dihydro-4-hydroxy-6,6-diphenyl-3-[(2-phenylethyl)thio]-2H-pyran-2-one]: 152 nM.
In turn, `CC(C)CCC1(c2ccccc2)CC(=O)C(SCc2ccccc2)C(=O)O1` (stereo not given) [3-(benzylsulfanyl)-4-hydroxy-6-(3-methylbutyl)-6-phenyl-5,6-dihydro-2H-pyran-2-one] displayed an IC50 of 98 nM.
On the same count and under the same terms, as for `CCCCCCC1(c2ccccc2)CC(=O)C(SCCc2ccccc2)C(=O)O1` (stereo not given) [5,6-Dihydro-6-hexyl-4-hydroxy-6-phenyl-3-[(2-phenylethyl)thio]-2H-pyran-2-one], the figure is 112 nM; as for `O=C(O)CCCCC1(c2ccccc2)CC(=O)C(SCCc2ccccc2)C(=O)O1` (stereo not given) [5-{4-hydroxy-6-oxo-2-phenyl-5-[(2-phenylethyl)sulfanyl]-3,6-dihydro-2H-pyran-2-yl}pentanoic acid], 5 nM; as for `O=C1CC(CC2CCCC2)(c2ccccc2)OC(=O)C1SCCc1ccccc1` (stereo not given) [6-(cyclopentylmethyl)-4-hydroxy-6-phenyl-3-[(2-phenylethyl)sulfanyl]-5,6-dihydro-2H-pyran-2-one], 510 nM.
Same read-out and setting: the same measure for `CC(C)CCCC1(c2ccccc2)CC(=O)C(SCc2ccccc2)C(=O)O1` (stereo not given) [3-(benzylsulfanyl)-4-hydroxy-6-(4-methylpentyl)-6-phenyl-5,6-dihydro-2H-pyran-2-one]: 183 nM; for `O=C1CC(CCc2ccccc2)(c2ccccc2)OC(=O)C1SCc1ccccc1` (stereo not given) [3-(benzylsulfanyl)-4-hydroxy-6-phenyl-6-(2-phenylethyl)-5,6-dihydro-2H-pyran-2-one]: 60 nM; for `CCCCC1(c2ccccc2)CC(=O)C(SCCc2ccccc2)C(=O)O1` (stereo not given) [6-Butyl-5,6-dihydro-4-hydroxy-6-phenyl-3-[(2-phenylethyl)thio]-2H-pyran-2-one]: 400 nM.
With `CCCCC1(c2ccccc2)CC(=O)C(SCc2ccccc2)C(=O)O1` (stereo not given) [3-(benzylsulfanyl)-6-butyl-4-hydroxy-6-phenyl-5,6-dihydro-2H-pyran-2-one], 270 nM corresponded to half-maximal inhibition (IC50).

The record behind these values is BindingDB's records for doi:10.1021/jm970615f (Parke-Davis Pharmaceutical Research, 1997).
